Results taken from ChEMBL document CHEMBL2029275, “Structure-activity relationship of a series of non peptidic RGD integrin antagonists targeting α5β1: part 2” (Bioorg Med Chem Lett, 2012).

Legend:
Integrin alpha-5/beta-1 [1] = biological target: T1, Integrin alpha-5/beta-1 (Homo sapiens, UniProt P05556+P08648); test: Binding affinity to integrin alpha5beta1; format: protein-complex assay
Integrin alpha-5/beta-1 [2] = biological target: T1, Integrin alpha-5/beta-1; test: Antagonist activity at integrin alpha5beta1 in human K562 cells assessed as inhibition of cell adhesion; format: functional, cell-based
Integrin alpha-5/beta-1 [3] = biological target: T1, Integrin alpha-5/beta-1; test: Antagonist activity at integrin alpha5beta1 in human K562 cells assessed as inhibition of cell adhesion in presence of human serum albumin; format: functional, cell-based
Homo sapiens = species: Homo sapiens; test: Free drug level in human; format: ADME, organism-based; details: in vivo
Rattus norvegicus = species: Rattus norvegicus; test: Free drug level in rat; format: ADME, organism-based; details: in vivo
Integrin alpha-V/beta-3 = Integrin alpha-V/beta-3 (Homo sapiens, UniProt P05106+P06756); test: Antagonist activity at integrin alphaVbeta3 in human A375M cells assessed as cell adhesion to fibrinogen in presence of Mg2+; format: functional, cell-based
Chain of Integrin alpha-V/beta-3 (P05106 27-788 limits assumed): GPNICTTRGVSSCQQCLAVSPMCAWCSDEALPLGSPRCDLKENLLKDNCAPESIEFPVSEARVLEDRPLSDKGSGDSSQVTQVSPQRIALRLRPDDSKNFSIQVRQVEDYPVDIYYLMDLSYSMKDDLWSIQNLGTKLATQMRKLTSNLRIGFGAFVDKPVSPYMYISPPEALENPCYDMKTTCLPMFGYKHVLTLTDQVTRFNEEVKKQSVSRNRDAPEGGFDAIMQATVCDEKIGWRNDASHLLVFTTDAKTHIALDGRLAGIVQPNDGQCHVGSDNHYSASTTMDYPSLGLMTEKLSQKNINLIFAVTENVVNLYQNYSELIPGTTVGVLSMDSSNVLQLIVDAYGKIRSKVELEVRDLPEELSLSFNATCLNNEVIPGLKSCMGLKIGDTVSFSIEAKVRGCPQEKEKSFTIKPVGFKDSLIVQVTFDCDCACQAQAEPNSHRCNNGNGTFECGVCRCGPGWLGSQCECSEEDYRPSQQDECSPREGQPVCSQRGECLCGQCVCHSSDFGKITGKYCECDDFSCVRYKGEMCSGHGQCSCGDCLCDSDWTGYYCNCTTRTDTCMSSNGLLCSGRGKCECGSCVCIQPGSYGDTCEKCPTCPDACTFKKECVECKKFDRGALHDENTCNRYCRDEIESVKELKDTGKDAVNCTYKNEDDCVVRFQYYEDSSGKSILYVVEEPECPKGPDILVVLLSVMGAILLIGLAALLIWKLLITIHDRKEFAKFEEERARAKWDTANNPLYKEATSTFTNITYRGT
Chain of Integrin alpha-V/beta-3 (P06756 31-889 limits assumed): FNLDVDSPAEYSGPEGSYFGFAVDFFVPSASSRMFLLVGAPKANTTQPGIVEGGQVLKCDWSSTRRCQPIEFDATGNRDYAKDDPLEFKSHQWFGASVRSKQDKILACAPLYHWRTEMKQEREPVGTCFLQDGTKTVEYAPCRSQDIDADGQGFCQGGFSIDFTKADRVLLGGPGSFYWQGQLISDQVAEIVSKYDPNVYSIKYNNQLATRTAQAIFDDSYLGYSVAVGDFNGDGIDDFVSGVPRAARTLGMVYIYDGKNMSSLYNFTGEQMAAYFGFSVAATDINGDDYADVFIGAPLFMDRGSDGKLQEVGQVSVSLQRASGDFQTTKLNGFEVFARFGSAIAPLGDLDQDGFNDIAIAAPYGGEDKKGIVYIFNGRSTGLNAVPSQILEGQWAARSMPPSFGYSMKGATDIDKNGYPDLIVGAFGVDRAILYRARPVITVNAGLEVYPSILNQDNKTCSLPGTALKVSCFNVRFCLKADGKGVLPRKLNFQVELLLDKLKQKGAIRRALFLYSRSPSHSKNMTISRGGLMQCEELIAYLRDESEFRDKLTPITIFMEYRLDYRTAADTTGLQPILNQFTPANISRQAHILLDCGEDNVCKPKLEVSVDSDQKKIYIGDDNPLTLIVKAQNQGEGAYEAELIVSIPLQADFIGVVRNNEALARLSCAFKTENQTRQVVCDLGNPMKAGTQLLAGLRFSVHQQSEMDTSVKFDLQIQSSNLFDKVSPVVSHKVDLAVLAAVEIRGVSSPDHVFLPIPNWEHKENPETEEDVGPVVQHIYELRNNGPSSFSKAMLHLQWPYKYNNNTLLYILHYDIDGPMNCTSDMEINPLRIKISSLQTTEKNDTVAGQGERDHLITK
Chain of Integrin alpha-V/beta-3 (P06756 891-1048 limits assumed): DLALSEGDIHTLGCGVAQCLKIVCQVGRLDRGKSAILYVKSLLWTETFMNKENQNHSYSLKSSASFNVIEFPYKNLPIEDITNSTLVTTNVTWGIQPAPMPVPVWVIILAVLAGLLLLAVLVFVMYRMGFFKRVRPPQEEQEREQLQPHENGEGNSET

[4] = biological target: Fibronectin receptor (Integrin alpha-5/beta-1 and alpha-V/beta-3) (Homo sapiens, UniProt P05106+P05556+P06756+P08648); test: Antagonist activity at integrin alphavbeta3alpha5beta1 in human A375M cells assessed as inhibition of cell adhesion to fibronectin in presence of Mg2+; format: functional, cell-based
Integrin alpha-5/beta-1 [5] = biological target: T1, Integrin alpha-5/beta-1; test: Antagonist activity at integrin alpha5beta1 in human A375M cells assessed as inhibition of cell adhesion in presence of Mg2+ and MK-0429; format: functional, cell-based
A375M = test: Selectivity ratio of IC50 for integrin alphavbeta3alpha5beta1-mediated human A375M cells adhesion to fibronectin in absence of MK-0429 to IC50 for integrin alpha5beta1-mediated human A375M cells adhesion to fibronectin in presence of MK-0429; format: cell-based

T1 sequence (P05556 21-798 limits assumed): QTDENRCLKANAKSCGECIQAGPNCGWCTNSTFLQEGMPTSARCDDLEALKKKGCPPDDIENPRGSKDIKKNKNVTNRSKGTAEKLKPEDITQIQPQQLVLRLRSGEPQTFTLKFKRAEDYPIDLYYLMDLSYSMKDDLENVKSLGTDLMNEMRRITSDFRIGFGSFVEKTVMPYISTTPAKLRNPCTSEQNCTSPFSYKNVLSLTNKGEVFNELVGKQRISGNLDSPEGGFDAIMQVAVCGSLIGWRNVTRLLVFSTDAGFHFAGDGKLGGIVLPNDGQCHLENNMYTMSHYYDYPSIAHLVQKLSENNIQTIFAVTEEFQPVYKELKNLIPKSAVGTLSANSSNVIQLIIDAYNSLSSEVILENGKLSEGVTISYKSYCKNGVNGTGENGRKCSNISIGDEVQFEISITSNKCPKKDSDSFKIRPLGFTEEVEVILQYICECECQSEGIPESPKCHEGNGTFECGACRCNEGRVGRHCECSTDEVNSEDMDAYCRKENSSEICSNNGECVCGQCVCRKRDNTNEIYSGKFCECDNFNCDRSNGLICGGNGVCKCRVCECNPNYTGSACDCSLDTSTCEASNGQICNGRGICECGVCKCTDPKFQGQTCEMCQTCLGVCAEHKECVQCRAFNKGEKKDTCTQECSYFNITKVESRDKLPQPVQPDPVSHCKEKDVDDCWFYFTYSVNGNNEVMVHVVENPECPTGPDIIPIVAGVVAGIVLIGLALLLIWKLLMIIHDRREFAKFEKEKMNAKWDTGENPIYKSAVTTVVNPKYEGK
T1 sequence (P08648 42-894 limits assumed): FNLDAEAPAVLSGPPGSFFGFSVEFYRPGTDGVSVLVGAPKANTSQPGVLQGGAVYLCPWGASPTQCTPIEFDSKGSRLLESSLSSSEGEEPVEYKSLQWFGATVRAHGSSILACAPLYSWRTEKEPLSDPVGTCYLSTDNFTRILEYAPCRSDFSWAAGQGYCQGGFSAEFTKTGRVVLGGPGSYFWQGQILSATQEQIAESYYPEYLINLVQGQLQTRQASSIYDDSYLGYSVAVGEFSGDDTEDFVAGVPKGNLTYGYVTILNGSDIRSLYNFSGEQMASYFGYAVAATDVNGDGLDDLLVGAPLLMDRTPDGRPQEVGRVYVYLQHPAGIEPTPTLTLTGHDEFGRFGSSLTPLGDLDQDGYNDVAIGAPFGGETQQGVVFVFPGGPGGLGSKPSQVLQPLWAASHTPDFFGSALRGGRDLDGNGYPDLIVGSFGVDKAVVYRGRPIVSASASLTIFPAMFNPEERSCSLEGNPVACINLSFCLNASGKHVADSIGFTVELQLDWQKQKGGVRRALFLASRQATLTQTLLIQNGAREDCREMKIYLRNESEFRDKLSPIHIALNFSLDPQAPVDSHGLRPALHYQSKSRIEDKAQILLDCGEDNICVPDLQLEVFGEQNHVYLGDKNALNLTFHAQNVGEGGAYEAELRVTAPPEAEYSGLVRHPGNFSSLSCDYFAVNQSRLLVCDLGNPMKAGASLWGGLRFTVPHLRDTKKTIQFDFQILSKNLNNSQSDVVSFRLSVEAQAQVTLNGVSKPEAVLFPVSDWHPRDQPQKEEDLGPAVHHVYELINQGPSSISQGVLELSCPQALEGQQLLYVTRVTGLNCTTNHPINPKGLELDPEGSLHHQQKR
T1 sequence (P08648 895-1049 limits assumed): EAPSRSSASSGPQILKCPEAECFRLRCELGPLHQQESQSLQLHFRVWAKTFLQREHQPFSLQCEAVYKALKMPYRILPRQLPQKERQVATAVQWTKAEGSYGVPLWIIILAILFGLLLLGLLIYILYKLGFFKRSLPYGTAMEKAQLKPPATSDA

Structure (SMILES)	IC50 (Integrin alpha-5/beta-1 [1])	IC50 (Integrin alpha-5/beta-1 [2])	IC50 (Integrin alpha-5/beta-1 [3])	Drug uptake(free) (Homo sapiens)	Drug uptake(free) (Rattus norvegicus)	IC50 (Integrin alpha-V/beta-3)	IC50 [4]	IC50 (Integrin alpha-5/beta-1 [5])	Ratio IC50 (A375M)
CNc1cccc(CCCc2csc(C[C@H](NC(=O)c3c(Cl)cccc3Cl)C(=O)O)c2)n1	180 nM	400 nM	–	–	–	–	–	–	–
CNc1cccc(CCOc2ccc(C[C@H](NC(=O)c3sccc3Cl)C(=O)O)cc2)n1	–	52 nM	36000 nM	0.1%	0.2%	2900 nM	2900 nM	2700 nM	1.1
O=C(N[C@@H](Cc1ccc(OCCCNc2ccccn2)cc1)C(=O)O)c1c(Cl)cccc1Cl	11 nM	120 nM	–	–	–	2600 nM	2500 nM	610 nM	4.2
O=C(N[C@@H](Cc1cccc(OCCCNc2ccccn2)c1)C(=O)O)c1c(Cl)cccc1Cl	–	20000 nM	–	–	–	–	–	–	–
CNc1cccc(CCOc2ccc(C[C@H](NC(=O)c3ccc(F)cc3OC)C(=O)O)cc2)n1	130 nM	820 nM	> 100000 nM	–	–	8300 nM	8300 nM	6500 nM	1.3
CNc1cccc(CCOc2ccc(C[C@H](NC(=O)c3ccc(F)cc3Cl)C(=O)O)cc2)n1	2 nM	33 nM	11000 nM	0.2%	0.3%	440 nM	440 nM	210 nM	2.1
CNc1cccc(CCOc2ccc(C[C@H](NC(=O)C3(C)CCCCC3)C(=O)O)cc2)n1	–	39 nM	7500 nM	0.25%	0.9%	830 nM	830 nM	480 nM	1.8
CNc1cccc(CCOc2ccc(C[C@H](NC(=O)c3c(C)cc(C)cc3C)C(=O)O)cc2)n1	1 nM	22 nM	1500 nM	–	0.5%	370 nM	380 nM	57 nM	6.7
O=C(N[C@@H](Cc1ccc(OCCNc2ccccn2)cc1)C(=O)O)c1c(Cl)cccc1Cl	82 nM	2500 nM	–	–	–	–	–	–	–
CNc1cccc(CCOc2ccc(C[C@H](NC(=O)c3ccc(F)cc3C)C(=O)O)cc2)n1	9 nM	36 nM	24000 nM	–	0.5%	510 nM	510 nM	470 nM	1.1
CNc1cccc(CCCc2ccc(C[C@H](NC(=O)c3c(Cl)cccc3Cl)C(=O)O)nc2)n1	9 nM	110 nM	–	–	–	–	–	–	–
CNc1cccc(CCOc2ccc(C[C@H](NC(=O)c3c(Cl)cccc3Cl)C(=O)O)cc2)n1	< 1 nM	7 nM	170 nM	1%	1.1%	230 nM	230 nM	97 nM	2.3
CNc1cccc(CCOc2ccc(C[C@H](NC(=O)c3c(Cl)cccc3Cl)C(=O)O)cn2)n1	6 nM	110 nM	–	–	–	1200 nM	1200 nM	570 nM	2.1
CNc1cccc(CCCc2ccc(C[C@H](NC(=O)c3c(Cl)cccc3Cl)C(=O)O)cc2)n1	8 nM	46 nM	–	–	–	–	–	–	–
CNc1cccc(CCOc2ccc(C[C@H](NC(=O)c3c(Cl)cncc3Cl)C(=O)O)cc2)n1	< 1 nM	< 4 nM	55 nM	2.4%	3.3%	130 nM	130 nM	52 nM	2.6
CNc1cccc(CCCc2ccc(C[C@H](NC(=O)c3c(Cl)cccc3Cl)C(=O)O)cn2)n1	5 nM	76 nM	–	–	–	–	–	–	–
O=C(N[C@@H](Cc1cccc(OCCCCNc2ccccn2)c1)C(=O)O)c1c(Cl)cccc1Cl	1900 nM	83000 nM	–	–	–	–	–	–	–

Structure (SMILES)	IC50 (Integrin alpha-5/beta-1 [1])	IC50 (Integrin alpha-5/beta-1 [2])	IC50 (Integrin alpha-5/beta-1 [3])	Drug uptake(free) (Homo sapiens)	Drug uptake(free) (Rattus norvegicus)	IC50 (Integrin alpha-V/beta-3)	IC50 [4]	IC50 (Integrin alpha-5/beta-1 [5])	Ratio IC50 (A375M)
CNc1cccc(CCOc2ccc(C[C@H](NC(=O)c3ccccc3)C(=O)O)cc2)n1	49 nM	430 nM	–	–	–	6700 nM	7400 nM	5400 nM	1.4
CNc1cccc(CCOc2ccc(C[C@H](NC(=O)c3c(Cl)cccc3Cl)C(=O)O)nc2)n1	1 nM	26 nM	–	–	–	620 nM	510 nM	84 nM	6.1
CNc1cccc(CCOc2ccc(C[C@H](NC(=O)c3ccccc3Cl)C(=O)O)cc2)n1	3 nM	42 nM	> 26000 nM	0.4%	0.5%	520 nM	540 nM	240 nM	2.2
CNc1cccc(CCOc2ccc(C[C@H](NC(=O)c3c(C)cccc3C)C(=O)O)cc2)n1	1 nM	< 23 nM	420 nM	–	2.2%	400 nM	400 nM	90 nM	4.5
CNc1cccc(CCOc2ccc(C[C@H](NC(=O)c3c(Cl)cccc3Cl)C(=O)O)cc2F)n1	2 nM	47 nM	–	–	–	290 nM	330 nM	76 nM	4.3
CNc1cccc(CCOc2ccc(C[C@H](NC(=O)c3c(Cl)cccc3Cl)C(=O)O)cc2C)n1	3 nM	81 nM	–	–	–	600 nM	640 nM	180 nM	3.6
CNc1cccc(CCOc2ccc(C[C@H](NC(=O)C3CCCCC3C)C(=O)O)cc2)n1 (stereo partly specified)	–	71 nM	29000 nM	–	0.9%	960 nM	960 nM	420 nM	2.3
CNc1cccc(CCOc2csc(C[C@H](NC(=O)c3c(Cl)cccc3Cl)C(=O)O)c2)n1	110 nM	510 nM	–	–	–	–	–	–	–
CCc1cc(F)ccc1C(=O)N[C@@H](Cc1ccc(OCCc2cccc(NC)n2)cc1)C(=O)O	4 nM	24 nM	5000 nM	–	0.4%	340 nM	340 nM	200 nM	1.7
COc1ccc([C@H](CC(=O)O)N2CCN(CCCc3ccc4c(n3)NCCC4)C2=O)cn1	–	4600 nM	–	–	–	0.3 nM	810 nM	2200 nM	0.4
CNc1cccc(CCOc2ccc(C[C@H](NC(=O)c3ccc(F)cc3C3CC3)C(=O)O)cc2)n1	3 nM	39 nM	7700 nM	–	0.4%	520 nM	510 nM	250 nM	2
O=C(N[C@@H](Cc1cccc(OCCNc2ccccn2)c1)C(=O)O)c1c(Cl)cccc1Cl	5900 nM	> 290000 nM	–	–	–	–	–	–	–
CNc1cccc(CCOc2ccc(C[C@H](NC(=O)c3c(F)cccc3Cl)C(=O)O)cc2)n1	< 1 nM	19 nM	1500 nM	0.6%	0.5%	280 nM	280 nM	160 nM	1.7
CNc1cccc(CCCc2ccc(C[C@H](NC(=O)c3c(Cl)cccc3Cl)C(=O)O)s2)n1	–	–	–	–	–	790 nM	800 nM	180 nM	4.4
CNc1cccc(CCOc2c(C)cc(C[C@H](NC(=O)c3c(Cl)cccc3Cl)C(=O)O)cc2C)n1	21 nM	610 nM	–	–	–	8800 nM	8800 nM	5800 nM	1.5
CNc1cccc(CCOc2ccc(C[C@H](NC(=O)c3c(C)noc3C)C(=O)O)cc2)n1	–	–	–	–	3.8%	–	–	–	–
O=C(N[C@@H](Cc1ccc2oc(CCNc3ccccn3)cc2c1)C(=O)O)c1c(Cl)cccc1Cl	890 nM	4000 nM	–	–	–	–	–	–	–
